Source: patent US7407988B2, “Carbamic acid compounds comprising a sulfonamide linkage as HDAC inhibitors” (Topotarget UK Limited, priority 2000, dated 2008)
Structures can show the parent of a compound that is named as a salt. Where two headings read alike, the source gives them in different places.

Assays:
HDAC (HeLa cell extract) = test: Primary assay: deacetylase activity, HeLa cell extract as source of HDAC; type: biochemical, human; settings: for HDAC Inhibition HeLa, % @ 500: Table 1, @ 500
Excerpt: Briefly, this assay relies on the release of radioactive acetate from a radioactively labelled histone fragment by the action of HDAC enzyme. Test compounds, which inhibit HDAC, reduce the yield of radioactive acetate. Signal (e.g., scintillation counts) measured in the presence and absence of a test compound provide an indication of that compound's ability to inhibit HDAC activity. Decreased activity indicates increased inhibition by the test compound.
The histone fragment was an N-terminal sequence from histone H4, and it was labelled with radioactively labelled acetyl groups using tritiated acetylcoenzyme A (coA) in conjunction with an enzyme which is the histone acetyltransferase domain of the transcriptional coactivator p300. […] The acetylated peptide was then separated from free acetyl coA by size exclusion chromatography on Sephadex G-15 (Sigma G-15-120), using distilled H2O as the mobile phase.
After purification of the radiolabelled histone fragment, it was incubated with a source of HDAC (e.g., an extract of HeLa cells (a rich source of HDAC), recombinantly produced HDAC1 or HDAC2) and any released acetate was extracted into an organic phase and quantitatively determined using scintillation counting. By including a test compound with the source of HDAC, that compound's ability to inhibit the HDAC was determined.
Two cell volumes of extraction buffer were used, and particulate material was centrifuged out (20800 g, 4° C., 10 min). The supernatant extract having deacetylase activity was aliquotted and frozen for storage.
A source of HDAC (e.g., 2 μL of crude HeLa extract, 5 μL of HDAC1 or HDAC2; in elution buffer, as above) was incubated with 3 μL of radioactively labelled peptide along with appropriate dilutions of candidate compounds (1.5 μL) in a total volume of 150 μL of buffer (20 mM Tris pH 7.4, 10% glycerol). The reaction was carried out at 37° C. for one hour, after which the reaction was stopped by adding 20 μL of 1 M HCl/0.4 M sodium acetate. […] Radioactivity was measured using a Tri-Carb 21 00TR Liquid Scintillation Analyzer (Packard).
Percent activity (% activity) for each test compound was calculated as: % activity={(S^C−B)/(S°−B)}×100 wherein S^C denotes signal measured in the presence of enzyme and the compound being tested, S° denotes signal measured in the presence of enzyme but in the absence of the compound being tested, and B denotes the background signal measured in the absence of both enzyme and compound being tested.

HeLa cells = test: Secondary assay: cell proliferation WST-1, HeLa; type: cell-based; settings: Homo sapiens, read-out: Cell Proliferation Inhibition WST-1 (IC50 unless otherwise specified) HeLa
JURKAT human T-cell line = test: Secondary assay: cell proliferation WST-1, Jurkat; type: cell-based; settings: Homo sapiens, Table 2, 48 h, read-out: Cell Proliferation Inhibition WST-1 (IC50 unless otherwise specified) Jurkat
[1] = test system: K11 HPV E7 transformed human keratinocyte line; test: Secondary assay: cell proliferation WST-1, K11; type: cell-based; settings: Homo sapiens, Keratinocyte, Table 2, 48 h, read-out: Cell Proliferation Inhibition WST-1 (IC50 unless otherwise specified) K11
[2] = Table 1, read-out: HDAC Inhibition (IC50 unless otherwise specified) HeLa
[3] = comparative tables, HDAC inhibition, read-out: HeLa IC50

SMILES | melting point | IC50 (HDAC (HeLa cell extract); [2]) | IC50 (HeLa cells; Table 2, 48 h) | HDAC Inhibition HeLa, % @ 500 (HDAC (HeLa cell extract)) | other results
O=C(CCCCCNS(=O)(=O)c1cccnc1)NO (as salt: oxalate) [PX117432, 6-(Pyridine-3-sulfonylamino)hexanoic acid hydroxyamide oxalate] | 132 to 134 °C | – | – | – | –
O=C(/C=C/c1ccc(NS(=O)(=O)c2ccccc2)cc1)NO [PX106499, 3-(4-Benzenesulfonylaminophenyl)-N-hydroxyacrylamide] | – | 35 nM | 3800 nM | – | IC50 (HDAC (HeLa cell extract); [3]): 35 nM
O=C(/C=C/c1cccc(S(=O)(=O)Nc2ccc(Br)cc2)c1)NO [PX106509] | 204 °C | 6 nM | 2000 nM | – | IC50 (JURKAT human T-cell line): 330 nM; IC50 [1]: 2000 nM
O=C(/C=C/c1cccc(S(=O)(=O)Nc2ccc(Cl)cc2)c1)NO [PX106510] | 198 °C | 12 nM | 2300 nM | – | IC50 (JURKAT human T-cell line): 250 nM; IC50 [1]: 4200 nM
O=C(CCCCCNS(=O)(=O)c1ccccc1)NO [PX106522, 6-Benzenesulfonylaminohexanoic acid hydroxyamide] | 80 to 82 °C | 1580 nM | 16700 nM | – | IC50 (HDAC (HeLa cell extract); [3]): 1600 nM
O=C(/C=C/C#Cc1cccc(S(=O)(=O)Nc2ccccc2)c1)NO [PX116238, (E)-5-(3-Phenylsulfamoylphenyl)pent-2-en-4-ynoic acid hydroxyamide] | 88 to 90 °C | 14 nM | 800 nM | – | IC50 (HDAC (HeLa cell extract); [3]): 14 nM
O=C(/C=C/c1ccccc1S(=O)(=O)Nc1ccccc1)NO [PX116242, N-Hydroxy-3-(2-phenylsulfamoylphenyl)acrylamide] | 205 to 206.5 °C | – | – | 9% @ 500 | HeLa, % @ 500 nM (HDAC (HeLa cell extract); comparative tables): 9% @ 500 nM
O=C(CCCCS(=O)(=O)Nc1ccccc1)NO [PX117233, 5-(Anilinosulfonyl)-N-hydroxypentanamide] | 128 to 129 °C | – | – | 21% @ 500 | –
O=C(CCCCCS(=O)(=O)Nc1ccccc1)NO [PX117234, 6-(Anilinosulfonyl)-N-hydroxyhexanamide] | 97 to 98 °C | – | – | 59% @ 500 | HeLa, % @ 500 nM (HDAC (HeLa cell extract); comparative tables): 59% @ 500 nM
O=C(CCCCS(=O)(=O)Nc1ccc2ccccc2c1)NO [PX117235, N-Hydroxy-5-[(2-naphthylamino)sulfonyl]pentanamide] | 163 to 164 °C | – | – | 40% @ 500 | –
O=C(CCCCCCS(=O)(=O)Nc1ccccc1)NO [PX117236] | 94 to 95 °C | – | – | 54% @ 500 | –
O=C(/C=C/c1cccc(S(=O)(=O)NCc2cccnc2)c1)NO [PX117250, N-Hydroxy-3-{3-[(pyridin-3-ylmethyl)-sulfamoyl]-phenyl}-acrylamide] | 191 °C | 192 nM | 7800 nM | – | IC50 (JURKAT human T-cell line): 1000 nM
CN(c1ccccc1)S(=O)(=O)CCCCCCC(=O)NO [PX117260, N-Hydroxy-7-[(methylanilino)sulfonyl]heptanamide] | 69 to 70 °C | – | – | 35% @ 500 | –
CN(c1ccccc1)S(=O)(=O)CCCCCC(=O)NO [PX117410, N-Hydroxy-6-[(methylanilino)sulfonyl]hexanamide] | 121 to 122 °C | – | – | 40% @ 500 | –
CN(c1ccccc1)S(=O)(=O)CCCCCCCC(=O)NO [PX117411, N-Hydroxy-8-[(methylanilino)sulfonyl]octanamide] | 65.5 to 66.5 °C | – | – | 39% @ 500 | –
O=C(CCCCCCCS(=O)(=O)N(Cc1ccccc1)c1ccccc1)NO [PX117412, 8-[(Benzylanilino)sulfonyl]-N-hydroxyoctanamide] | 119 to 119.5 °C | – | – | 54% @ 500 | –
O=C(CCCCCS(=O)(=O)N(Cc1ccccc1)c1ccccc1)NO [PX117414, 6-[(Benzylanilino)sulfonyl]-N-hydroxyhexanamide] | 129 to 129.5 °C | – | – | 46% @ 500 | –
O=C(CCCCCNS(=O)(=O)/C=C/c1ccccc1)NO [PX117429, 6-(2-Phenylethenesulfonylamino)hexanoic acid hydroxyamide] | 107 to 109 °C | – | – | 73% @ 500 | –
O=C(CCCCCNS(=O)(=O)c1cccnc1)NO [PX117432, 6-(Pyridine-3-sulfonylamino)hexanoic acid hydroxyamide oxalate] | – | – | – | 24% @ 500 | –
O=C(/C=C/c1ccccc1S(=O)(=O)Nc1cccc2ccccc12)NO [PX117447, N-Hydroxy-3-[2-(naphthalen-1-ylsulfamoyl)-phenyl]-acrylamide] | 186 to 187 °C | – | – | 3% @ 500 | HeLa, % @ 500 nM (HDAC (HeLa cell extract); comparative tables): 3% @ 500 nM; IC50 (HeLa cells; 48 h): 77800 nM
CN(c1ccccc1)S(=O)(=O)c1ccccc1/C=C/C(=O)NO [PX117448, N-Hydroxy-3-[2-(methyl-phenyl-sulfamoyl)-phenyl]-acrylamide] | 144.5 to 145.5 °C | – | – | 3% @ 500 | HeLa, % @ 500 nM (HDAC (HeLa cell extract); comparative tables): 3% @ 500 nM; IC50 (HeLa cells; 48 h): 88900 nM
O=C(/C=C/c1ccc(S(=O)(=O)Nc2ccccc2)cc1)NO [PX117450, N-Hydroxy-3-(4-phenylsulfamoylphenyl)acrylamide] | 176 to 177.5 °C | 20 nM | 1600 nM | – | IC50 (HDAC (HeLa cell extract); [3]): 20 nM
O=C(/C=C/c1cccc(S(=O)(=O)Nc2ccccc2-c2ccccc2)c1)NO [PX117713, 3-[3-(Biphenyl-2-ylsulfamoyl)phenyl]-N-hydroxy-acrylamide] | – | 138 nM | 5100 nM | – | IC50 (JURKAT human T-cell line): 620 nM; IC50 [1]: 9200 nM
O=C(/C=C/c1cccc(S(=O)(=O)NC2Cc3ccccc3C2)c1)NO [PX117735, N-Hydroxy-3-[3-(indan-2-ylsulfamoyl)-phenyl]-acrylamide] | 164 °C | 6 nM | – | – | IC50 (JURKAT human T-cell line): 74 nM; IC50 [1]: 3100 nM
O=C(/C=C/c1ccc(S(=O)(=O)Nc2ccc3ccccc3c2)cc1)NO [PX117736, N-Hydroxy-3-[4-(naphthalen-2-ylsulfamoyl)-phenyl]-acrylamide] | 198.5 to 199.5 °C | 6 nM | – | – | IC50 (JURKAT human T-cell line): 120 nM; IC50 [1]: 800 nM
COc1cc(CNS(=O)(=O)c2cccc(/C=C/C(=O)NO)c2)cc(OC)c1OC [PX117778, N-Hydroxy-3-[3-(3,4,5-trimethoxy-benzylsulfamoyl)-phenyl]-acrylamide] | – | > 400 nM | – | – | IC50 (JURKAT human T-cell line): > 10000 nM; IC50 [1]: > 30000 nM
COc1ccc(CCNS(=O)(=O)c2cccc(/C=C/C(=O)NO)c2)cc1OC [PX117779, 3-{3-[2-(3,4-Dimethoxy-phenyl)-ethylsulfamoyl]-phenyl}-N-hydroxy-acrylamide] | – | 250 nM | 9600 nM | – | IC50 (JURKAT human T-cell line): 1100 nM; IC50 [1]: 1400 nM
